# “Also recorded” adds a separate entry of the source. Non-standard residues stand in square brackets, D forms with d. Residues, ends and D or L forms follow the SMILES beside them. *: point of attachment. Decanoyl(3,6,9-trioxa) = COCCOCCOCC(=O)*; NBD = O=[N+]([O-])c1ccc(*)c2nonc12; dNle = CCCC[C@@H](N)C(=O)O; Nle = CCCC[C@H](N)C(=O)O; AEEA = NCCOCCOCC(=O)O; Ahx = NCCCCCC(=O)O
# Test system: not listed separately
# Test: broncho-alveolar lavage fluid (BALF) retrieved from ventilated ICU patients with Acute Respiratory Distress Syndrome (ARDS); pooled samples from three patients
# Conditions: human, up to 30min
not cleaved,Compound,cleaved bond
Stable in ARDS BALF,MeO-PEG- D- Arg- D- Arg- D- Asn- D- Tyr- D- Gln- D- Nle- D- Arg- D- Arg- D- Lys- D- Ala- D- Arg-Gly- D- Thr-Lys(NBD)-OH,–
–,NBD-Ahx-Thr-Gly-Arg-Ala-Lys-Arg-Arg-Nle-Gln-Tyr-Asn-Arg-Arg-NH2,"ArgP8-ArgP7, major, <5 min; also recorded: ArgP2-ArgP1, major, <5 min"
Stable in ARDS BALF,NBD-Ahx-Thr-Gly-Arg-Ala-Lys-Arg-MeArg-Nle-Gln-Tyr-Asn-Arg-Arg-D-Phe-D-Val-NH2,–
Stable in ARDS BALF,NBD-Ahx-Thr-Gly-Arg-Ala-Lys-MeArg-MeArg-Nle-Gln-Tyr-Asn-MeArg-MeArg-NH2,–
–,NBD-Ahx-cyclo[Lys-Thr-Gly-Arg-Ala-Lys-Arg-Arg-Nle-Gln-Tyr-Asn-Arg-Arg-Gly],"Thr-Gly, first_seen, 10min; also recorded: Arg-Arg, major, 20min"
stability in BALF for over 30 minutes,NBD-Ahx-cyclo[Lys-Thr-Gly-Arg-Ala-Lys-Arg-Arg-Nle-Gln-Tyr-Asn-Arg-MeArg-Gly],–
Stable in ARDS BALF,NBD-PEG-D-Thr-Gly-D-Arg-D-Ala-D-Lys-D-Arg-D-Arg-D-Nle-D-Gln-D-Tyr-D-Asn-D-Arg-D-Arg-OH,–

# Test system: methicillin-sensitive Staphylococcus aureus
# Test: Confocal labelling of MSSA with quantified fluorescence
# Type: cell-based
# Conditions: MSSA, 10 μM, fluorescence normalized to UBI-3, mean ± SEM, n ≥ 3
# Protocol: Fig. 6 Confocal Images of compounds UBI-3 to 9 with quantified fluorescence. Panels show methicillin-sensitive Staphylococcus aureus incubated with UBI-3 to 9 (all 10 μM) with quantification of bacterial fluorescence normalized to UBI-3 (bars represent mean (±SEM), n ≥ 3, ns = not significant, *** = p < 0.001, * = p < 0.05, scale bar = 10 μm).
# Fig. 8 Confocal images and quantification of cyclic variants when compared to UBI-3. Panels show methicillin-sensitive Staphylococcus aureus incubated with cyclic UBI compounds (all 10 μM) with quantification of bacterial fluorescence normalized to UBI-3 (bars represent mean (±SEM), n ≥ 3, ns = not significant, ** = p < 0.01, scale bar = 10 μm).
# Bacterial Culture and Labelling: Bacteria used were K. pneumoniae (ATCC BAA1706) ATCC, E. coli (ATCC 25922) ATCC, A. baumannii (J3433) Clinical Isolate, P. aeruginosa (J3284) Clinical Isolate, Methicillin Resistant S. aureus (MRSA) (ATCC25923) ATCC and Methicillin Sensitive S. aureus (MSSA) (ATCC 252) ATCC. All bacteria were grown on Lysogeny broth (LB) agar and from a single bacterial colony placed into 10ml of LB and incubated at 37°C for 16 hours in an orbital shaker.
# Cultures were centrifuged at 4000rpm for 5 minutes and the pellet resuspended in 1ml phosphate buffered saline (PBS, Life Technologies). Following three further washes in PBS the cultures were reconstituted to 1 OD595 nm. Bacteria were counterstained with 5µM Syto 82 orange fluorescent nucleic acid stain (Invitrogen, CA, USA) in a shaking heat block at 37 °C for 20 minutes. For FCFM bacteria were stained with 1µM Calcein AM (Sigma, MO, USA) for 30 minutes at 37 °C. Counterstained bacteria were washed in PBS to remove excess dye. […]
# Confocal Analysis and Fluorescence Quantification: 8-Well Lab-Tek II Confocal Chambers (VWR, PA, USA) were coated in fibronectin (for neutrophil experiments) or poly-d-lysine (for bacteria) at 37 °C for 20 minutes, then washed in PBS prior to bacterial innoculation. For co-culture assays, neutrophils were seeded on fibronectin coated wells at 1 x 10^5 neutrophils per well for 20 minutes and non-adherent neutrophils aspirated. Bacteria were added to each chamber to a final concentration of 0.5 OD595 nm with the desired final concentration of Smartprobe. A laser-scanning confocal imaging system (LSM510; Carl Zeiss, Jena, Germany), incorporating an upright Axioskop FS2 microscope (63× objective) was used for image acquisition and processing. Exposure to 488 nm light was limited to 5% of the maximum laser power in order to minimize toxicity. ‘Green’ fluorescence (for FAM and NBD) was excited with a dedicated 488 nm line and emitted light detected with meta detector (500-530 nM).
# Syto nuclear and dyes were excited with a dedicated 543 nm line, and emitted light detected with meta detector (570-610 nM). Fields of view were chosen based on the counterstain and at least three fields of view were recorded for each condition. For affinity assays, following initial imaging, the fluid was aspirated and two gentle washes with PBS were performed. The chamber was re-imaged on confocal.
# Analysis was with ImageJ (version 1.46r, National Institutes of Health, USA); the Syto channel was automatically thresholded (MaxEntropy, with a set threshold 0-47) and an ROI generated from this. The […]
# mean fluorescence intensity on the probe channel within this ROI was quantified. Data presented represents the mean of three experiments, from each of which three separate fields of view were assessed. All experiments were performed at least three times unless otherwise stated and results expressed as mean ± SEM. Data was analysed by unpaired t-test and significance was determined as p<0.05 (GraphPad Prism version 5.01 for Windows, GraphPad Software, San Diego California USA).
# Ex vivo Human Lung and FCFM Procedure: Human lung samples were obtained from patients undergoing surgical resection for lung carcinoma. All images were obtained on sections of normal lung […]
row,Compound,bacterial labelling (fluorescence compared with UBI-3)
1,"CCCC[C@H](NC(=O)[C@H](CCCNC(=N)N)NC(=O)[C@H](CCCNC(=N)N)NC(=O)[C@H](CCCCN)NC(=O)[C@H](C)NC(=O)[C@H](CCCNC(=N)N)NC(=O)CNC(=O)[C@@H](NC(=O)[C@H](CCCCNc1ccc([N+](=O)[O-])c2nonc12)NC(=O)COCCOCCOC)[C@@H](C)O)C(=O)N[C@@H](CCC(N)=O)C(=O)N[C@@H](Cc1ccc(O)cc1)C(=O)N[C@@H](CC(N)=O)C(=O)N[C@@H](CCCNC(=N)N)C(=O)N[C@@H](CCCNC(=N)N)C(=O)NCCOCCOCC(=O)NCCOCCOCC(N)=O [UBI-6] ({Decanoyl(3,6,9-trioxa)}-K(NBD)TGRAKRR[Nle]QYNRR[AEEA][AEEA]-NH2)",loss of labelling on bacteria; also recorded: loss of labelling efficacy
2,CCCC[C@H](NC(=O)[C@H](CCCNC(=N)N)NC(=O)[C@H](CCCNC(=N)N)NC(=O)[C@H](CCCCN)NC(=O)[C@H](C)NC(=O)[C@H](CCCNC(=N)N)NC(=O)CNC(=O)[C@@H](NC(=O)CCCCCNc1ccc([N+](=O)[O-])c2nonc12)[C@@H](C)O)C(=O)N[C@@H](CCC(N)=O)C(=O)N[C@@H](Cc1ccc(O)cc1)C(=O)N[C@@H](CC(N)=O)C(=O)N[C@@H](CCCNC(=N)N)C(=O)N[C@@H](CCCNC(=N)N)C(=O)NCCOCCOCC(=O)NCCOCCOCC(N)=O [UBI-7] ({NBD-Ahx}-TGRAKRR[Nle]QYNRR[AEEA][AEEA]-NH2),loss of bacterial labelling; also recorded: loss of labelling efficacy
3,CCCC[C@@H](NC(=O)[C@@H](CCCNC(=N)N)NC(=O)[C@@H](CCCNC(=N)N)NC(=O)[C@@H](CCCCN)NC(=O)[C@@H](C)NC(=O)[C@@H](CCCNC(=N)N)NC(=O)CNC(=O)[C@H](NC(=O)COCCOCCNc1ccc([N+](=O)[O-])c2nonc12)[C@H](C)O)C(=O)N[C@H](CCC(N)=O)C(=O)N[C@H](Cc1ccc(O)cc1)C(=O)N[C@H](CC(N)=O)C(=O)N[C@H](CCCNC(=N)N)C(=O)N[C@H](CCCNC(=N)N)C(=O)O [UBI-8] ({NBD-AEEA}-[dT]G[dR][dA][dK][dR][dR][dNle][dQ][dY][dN][dR][dR]-OH),loss of labelling on bacteria; also recorded: loss of labelling efficacy
4,"CCCC[C@@H](NC(=O)[C@@H](CCC(N)=O)NC(=O)[C@@H](Cc1ccc(O)cc1)NC(=O)[C@@H](CC(N)=O)NC(=O)[C@@H](CCCNC(=N)N)NC(=O)[C@@H](CCCNC(=N)N)NC(=O)COCCOCCOC)C(=O)N[C@H](CCCNC(=N)N)C(=O)N[C@H](CCCNC(=N)N)C(=O)N[C@H](CCCCN)C(=O)N[C@H](C)C(=O)N[C@H](CCCNC(=N)N)C(=O)NCC(=O)N[C@@H](C(=O)N[C@@H](CCCCNc1ccc([N+](=O)[O-])c2nonc12)C(=O)O)[C@H](C)O [UBI-9] ({Decanoyl(3,6,9-trioxa)}-[dR][dR][dN][dY][dQ][dNle][dR][dR][dK][dA][dR]G[dT]K(NBD)-OH)",loss of labelling on bacteria; also recorded: loss of labelling efficacy

# Test system: not listed separately
# Test: Stability in ARDS bronchoalveolar lavage fluid (MALDI-TOF MS)
# Type: in vitro ADME, human
# Conditions: human ARDS BALF pooled from three patients vs PBS, 5 and 30 min, MALDI-TOF MS
# Text: To determine the ability of UBI-3 to image bacteria in the continued presence of a complex inflammatory environment, bacteria were labelled with UBI-3 in the presence of broncho-alveolar lavage fluid (BALF) retrieved from ventilated ICU patients with Acute Respiratory Distress Syndrome (ARDS). ARDS BALF was utilised as ARDS is a severe life threatening pulmonary syndrome, characterized by a massive proteolytic and oxidative inflammatory environment within the distal alveolar region.[14] […] To design out susceptible amino acid cleavage points, a number of modifications were made (Table 1) and the functional consequences assessed. The chemical approaches pursued to improve resistance to degradation included replacing amino acids at the cleavage positions with non-natural amino acids such as N-methyl or D-amino acids,[15] and cyclisation of the peptide,[16] which could have the added benefit of enhancing affinity towards bacterial membrane.[17]
# The Arg–Arg bonds were identified as the prominent position of degradation (Fig. 5) and Compounds UBI-4–9 (Table 1) were synthesised with a variety of substitutions around the degradation sites. The susceptible peptide bonds at P1–P2 and P7–P8 were blocked using N-MeArg (UBI-4), and to further mask these positions, a long polyethylene glycol (PEG) chain and/or a D-amino acid were positioned at the carboxylic and/or amino termini (UBI-5–7).
# We hypothesized that cyclisation of the sequence would allow for greater stability and also improve bacterial affinity and therefore cyclic variants of UBI-3 were synthesized (UBI-10 and UBI-11), which were both found to be stable in BALF for 5 minutes (Fig. 7 and S3 ESI ^†). […] However, these studies also highlighted the degradation of UBI-10 at 10 minutes, guiding the temporal constraints of Smartprobe delivery and optical imaging.
# Fig. 7 UBI-10 remains stable in ARDS BALF at 5 minutes. (A) Structure of UBI-10 with breakdown products in ARDS BALF. […] TEXT PRINTED IN THE PICTURE: UBI-10: Molecular Weight: 2118.41 | Fragment A: Molecular Weight: 1923.18 | Fragment B: Molecular Weight: 1980.23 DOUBTS OF THE COPYIST ABOUT THIS PICTURE: UBI-10, Molecular Weight: very small print, 2118.41 is the best reading; the digits 8 and 4 are uncertain / Fragment A, Molecular Weight: very small print, 1923.18 is the best reading; the digits 9, 3 and 8 are uncertain / Fragment B, Molecular Weight: very small print, 1980.23 is the best reading; the digits 9, 8 and 3 are uncertain […]
# Supplementary Information
# A Labelled-Ubiquicidin Antimicrobial Peptide for Immediate In Situ Optical Detection of Live Bacteria in Human Alveolar Lung Tissue
# Ahsan R Akram, Nicolaos Avlonitis, Annamaria Lilienkampf, Ana M Perez-Lopez, Neil McDonald, Sunay V Chankeshwara, Emma Scholefield, Christopher Haslett, Mark Bradley & Kevin Dhaliwal.
# Figure S1: MALDI-TOF MS spectra for a stability study of UBI-3 in PBS and in ARDS BALF […]
# Figure S2. MALDI-TOF MS spectra of modified analogues UBI-4 to UBI-9 in Phosphate Buffered Saline and ARDS BALF over a period of 5 and 30min.
# Figure S3: MALDI-TOF MS spectra of UBI-11 in Phosphate Buffered Saline vs ARDS BALF […]
# Figure S4. Quantified fluorescence of confocal microscopy images of the compounds UBI-3, UBI-5 and UBI-10 on three bacteria and fluorescence retention following a PBS wash.
# Figure S5: Fibered confocal fluorescence microscopy imaging of human lung and Calcein AM stained Methicillin sensitive S. aureus.
# Experimental Details including Tables M1-4, Figure M1 and HPLC Chromatograms.
# (also on this page, place not known: Electronic Supplementary Material (ESI) for Chemical Science. This journal is © The Royal Society of Chemistry 2015)
# (1 picture or pasted object on this page, not shown here) […]
# BALF Retrieval: Bronchoalveolar lavage was performed in the Intensive Care Unit (ICU), as previously described. S5 Pooled samples from three patients were used for stability assays. […]
# Exposure to 488 nm light was limited to 5% […]
row,Compound,stability in ARDS BALF
1,CCCC[C@H](NC(=O)[C@H](CCCNC(=N)N)NC(=O)[C@H](CCCNC(=N)N)NC(=O)[C@H](CCCCN)NC(=O)[C@H](C)NC(=O)[C@H](CCCNC(=N)N)NC(=O)CNC(=O)[C@@H](NC(=O)CCCCCNc1ccc([N+](=O)[O-])c2nonc12)[C@@H](C)O)C(=O)N[C@@H](CCC(N)=O)C(=O)N[C@@H](Cc1ccc(O)cc1)C(=O)N[C@@H](CC(N)=O)C(=O)N[C@@H](CCCNC(=N)N)C(=O)N[C@@H](CCCNC(=N)N)C(=O)NCCOCCOCC(=O)NCCOCCOCC(N)=O [UBI-7] ({NBD-Ahx}-TGRAKRR[Nle]QYNRR[AEEA][AEEA]-NH2),did not improve stability in ARDS BALF; also recorded: Unstable in ARDS BALF at 30 minutes
